Reference: PubChem BioAssay (NCI)
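Protocol summary: plate cells (96-well), add compound at 5 concentrations, incubate 48 h, interpolate endpoints linearly. At the TGI there is no net growth.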

Tests used:
Assay in all cases: DTP human tumour cell line panel, 48 h
[1] = test system: SNB-19 CNS
[2] = test system: UACC-257 melanoma
[3] = test system: UACC-62 melanoma
[4] = test system: HT29 colon
[5] = test system: LOX IMVI melanoma
[6] = test system: RXF 393 renal
[7] = test system: EKVX NSCLC
[8] = test system: PC-3 prostate
[9] = test system: MOLT-4 leukemia
[10] = test system: A498 renal
[11] = test system: U251 CNS
[12] = test system: IGROV1 ovarian
[13] = test system: A549 NSCLC
[14] = test system: NCI-H460 lung
[15] = test system: M14 melanoma
[16] = test system: DU-145 prostate
[17] = test system: HOP-92 NSCLC
[18] = test system: MCF7 breast
[19] = test system: NCI/ADR-RES ovarian
[20] = test system: K-562 leukemia
[21] = test system: OVCAR-5 ovarian
[22] = test system: SK-MEL-2 melanoma
[23] = test system: OVCAR-4 ovarian
[24] = test system: HS 578T breast
[25] = test system: OVCAR-3 ovarian
[26] = test system: NCI-H23 lung
[27] = test system: HCT-116 colon
[28] = test system: MALME-3M melanoma
[29] = test system: RPMI-8226 leukemia
[30] = test system: SK-MEL-28 melanoma
[31] = test system: SK-OV-3 ovarian
[32] = test system: SF-295 CNS
[33] = test system: ACHN renal
[34] = test system: KM12 colon
[35] = test system: UO-31 renal
[36] = test system: NCI-H226 lung
[37] = test system: HOP-62 NSCLC
[38] = test system: SK-MEL-5 melanoma
[39] = test system: SF-268 CNS
[40] = test system: MDA-MB-231 breast
[41] = test system: TK-10 renal
[42] = test system: SNB-75 CNS
[43] = test system: OVCAR-8 ovarian
[44] = test system: HCT-15 colon
[45] = test system: SW-620 colon
[46] = test system: CAKI-1 renal
[47] = test system: 786-0 renal
[48] = test system: COLO 205 colon
[49] = test system: MDA-N
[50] = test system: SN12C renal
[51] = test system: NCI-H522 lung
[52] = test system: SF-539 CNS
[53] = test system: T-47D breast
[54] = test system: MDA-MB-435
[55] = test system: SR leukemia
[56] = test system: CCRF-CEM leukemia
[57] = test system: HCC-2998 colon
[58] = test system: HL-60(TB) leukemia

Measured: TGI

CCOCCOC(=O)C1CCC(=O)N1CN(C(C)=O)c1cc(OC)ccc1OC (stereo unspecified)
not listed: [56] | [57] | [58]
> 100 µM: all other assays above

CCOC(=O)C(=O)/C(=C/n1c(=S)[nH]c2ccc([N+](=O)[O-])cc21)C(=O)OCC
not listed: [7] | [12] | [28] | [44] | [51]
> 100 µM: all other assays above

CCOC(=O)c1csc(NC(=O)CN(C)C)n1
not listed: [27] | [28] | [47] | [50] | [51]
> 100 µM: all other assays above
